Experimental data from PubChem BioAssay AID330 (DTP/NCI, 2004).
Values joined by “and” are separate entries in the source; they are usually repeats but may differ in a detail not shown here. Equal entries are not always repeated. Inconclusive results and toxic doses are left out.

Test system: P388 leukemia ip, CD2F1 mice, survival T/C
Experiment: NCI In Vivo Anticancer Drug Screen. Data for tumor model P388 Leukemia (intraperitoneal) in CD2F1 (CDF1) mice
Conditions: endpoint: median survival time, higher = longer survival
In short: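 Mice carrying the transplanted tumor received test compound or vehicle. Survival was recorded in each group, and the value is the treated-group measurement divided by that of the vehicle-treated control group.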

[1] = dose: 60.0 mg/kg/injection, schedule: Q01DX005 (ip), vehicle: Klucel (hydroxypropylcellulose) (HPC)
[2] = dose: 120.0 mg/kg/injection, schedule: Q01DX005 (ip), vehicle: Klucel (hydroxypropylcellulose) (HPC)
[3] = dose: 240.0 mg/kg/injection, schedule: Q01DX005 (ip), vehicle: Klucel (hydroxypropylcellulose) (HPC)
[4] = dose: 100.0 mg/kg/injection, schedule: Q04DX002 (ip), vehicle: Klucel (hydroxypropylcellulose) (HPC)
[5] = dose: 200.0 mg/kg/injection, schedule: Q04DX002 (ip), vehicle: Klucel (hydroxypropylcellulose) (HPC)
[6] = dose: 400.0 mg/kg/injection, schedule: Q04DX002 (ip), vehicle: Klucel (hydroxypropylcellulose) (HPC)
[7] = dose: 60.0 mg/kg/injection, schedule: Q01DX005 (ip), vehicle: Klucel + Tween-80
[8] = dose: 120.0 mg/kg/injection, schedule: Q01DX005 (ip), vehicle: Klucel + Tween-80
[9] = dose: 240.0 mg/kg/injection, schedule: Q01DX005 (ip), vehicle: Klucel + Tween-80
[10] = dose: 50.0 mg/kg/injection, schedule: Q01DX009 (ip), vehicle: saline with Tween-80

Question: `COC(=O)C12CN3CC(C)(C1)C(=O)C(C)(C3)C2=O` (stereo not given) was tested. Which T/C (dose: 30.0 mg/kg/injection, schedule: Q01DX005 (ip), vehicle: Klucel (hydroxypropylcellulose) (HPC)) did it give?
Answer: 100 % of control

Question: What about the T/C [1] of the same compound?
Answer: 103 % of control and 107 % of control

Question: And the T/C [2]?
Answer: 107 % of control

Question: What about the T/C [3] of the same compound?
Answer: 89 % of control

Question: Which T/C [4] does the source give for `O=S(=O)(Nc1nccs1)c1ccc(NCc2c3ccccc3nc3ccccc23)cc1` here?
Answer: 101 % of control

Question: What about the T/C [5] of the same compound?
Answer: 100 % of control

Question: What about the T/C [6] of the same compound?
Answer: 105 % of control

Question: Which results are given for `COc1ccc(Br)c(C(=O)N2CCc3ccccc32)c1OS(=O)(=O)c1ccc(C)cc1`?
Answer: T/C (dose: 25.0 mg/kg/injection, schedule: Q01DX009 (ip), vehicle: distilled water + Tween-80): 98 % of control; T/C (dose: 50.0 mg/kg/injection, schedule: Q01DX009 (ip), vehicle: distilled water + Tween-80): 100 % of control; T/C (dose: 100.0 mg/kg/injection, schedule: Q01DX009 (ip), vehicle: distilled water + Tween-80): 91 % of control; T/C (dose: 200.0 mg/kg/injection, schedule: Q01DX009 (ip), vehicle: distilled water + Tween-80): 89 % of control; T/C (dose: 400.0 mg/kg/injection, schedule: Q01DX009 (ip), vehicle: distilled water + Tween-80): 95 % of control

Question: Which T/C [7] does the source give for `CCOC(=O)c1cnc2cc(C)cc(C)c2c1Nc1ccc2c(c1)OCO2` here?
Answer: 100 % of control

Question: And the T/C [8]?
Answer: 92 % of control

Question: What about the T/C [9] of the same compound?
Answer: 87 % of control

Question: With `O=Cc1cc(/C=N/Nc2ccccc2C(=O)O)nc2[nH]c(=O)ccc12` as the compound, how does the T/C [4] read?
Answer: 107 % of control

Question: What about the T/C [5] of the same compound?
Answer: 102 % of control

Question: And the T/C [6]?
Answer: 101 % of control

Question: `COc1cc(NC(C)CCCNC(C)C)c2ncccc2c1` (stereo not given) was tested. Which T/C (dose: 6.25 mg/kg/injection, schedule: Q01DX005 (ip), vehicle: saline with Tween-80) did it give?
Answer: 100 % of control

Question: And the T/C (dose: 12.5 mg/kg/injection, schedule: Q01DX005 (ip), vehicle: saline with Tween-80)?
Answer: 100 % of control

Question: What does the source list for `FC(F)(F)c1ccccc1N=Nc1c(-c2ccccc2)nn(C(=S)S)c1-c1ccccc1`?
Answer: T/C (dose: 100.0 mg/kg/injection, schedule: Q04DX002 (ip), vehicle: saline with Tween-80): 93 % of control; T/C (dose: 200.0 mg/kg/injection, schedule: Q04DX002 (ip), vehicle: saline with Tween-80): 91 % of control; T/C (dose: 400.0 mg/kg/injection, schedule: Q04DX002 (ip), vehicle: saline with Tween-80): 100 % of control

Question: For `O[O][Sn][c]1ccccc1`, which T/C [10] is on record?
Answer: 100 % of control

Question: And the T/C (dose: 100.0 mg/kg/injection, schedule: Q01DX009 (ip), vehicle: saline with Tween-80)?
Answer: 100 % of control

Question: And the T/C (dose: 200.0 mg/kg/injection, schedule: Q01DX009 (ip), vehicle: saline with Tween-80)?
Answer: 86 % of control

Question: What does the source list for `CC(O)CN=Cc1ccccc1[O-].CC(O)CN=Cc1ccccc1[O-].[Cu+2]` (stereo not given)?
Answer: T/C (dose: 15.0 mg/kg/injection, schedule: Q01DX005 (ip), vehicle: saline with Tween-80): 95 % of control; T/C (dose: 30.0 mg/kg/injection, schedule: Q01DX005 (ip), vehicle: saline with Tween-80): 94 % of control; T/C (dose: 60.0 mg/kg/injection, schedule: Q01DX005 (ip), vehicle: saline with Tween-80): 101 % of control and 89 % of control

Question: With `Clc1ccc(-c2cc(-c3cc(-c4ccc(Cl)cc4Cl)n[nH]3)[nH]n2)c(Cl)c1` as the compound, how does the T/C [7] read?
Answer: 100 % of control

Question: What about the T/C [8] of the same compound?
Answer: 98 % of control

Question: What about the T/C [9] of the same compound?
Answer: 90 % of control

Question: Which results are given for `CC/C(=N\Nc1cc(C)[nH]c(=O)c1)c1ccccc1`?
Answer: T/C (dose: 100.0 mg/kg/injection, schedule: Q01DX001 (ip), vehicle: saline with Tween-80): 98 % of control; T/C (dose: 200.0 mg/kg/injection, schedule: Q01DX001 (ip), vehicle: saline with Tween-80): 86 % of control; T/C (dose: 400.0 mg/kg/injection, schedule: Q01DX001 (ip), vehicle: saline with Tween-80): 89 % of control

Question: Which results are given for `O=c1cc2cccccc-2o1`?
Answer: T/C (dose: 100.0 mg/kg/injection, schedule: Q01DX001 (ip), vehicle: Klucel (hydroxypropylcellulose) (HPC)): 101 % of control; T/C (dose: 200.0 mg/kg/injection, schedule: Q01DX001 (ip), vehicle: Klucel (hydroxypropylcellulose) (HPC)): 103 % of control

Question: Which results are given for `CC(=O)Nc1ccc(S(=O)(=O)Nc2ccc3[nH]c(=O)oc3c2)cc1`?
Answer: T/C (dose: 50.0 mg/kg/injection, schedule: Q04DX002 (ip), vehicle: Klucel (hydroxypropylcellulose) (HPC)): 104 % of control; T/C [4]: 97 % of control; T/C [5]: 97 % of control

Question: Which T/C (dose: 100.0 mg/kg/injection, schedule: Q04DX003 (ip), vehicle: saline) does the source give for `[Cl][Pd][Cl].[NH-]C(C(=O)O)c1ccccc1.[NH-]C(C(=O)O)c1ccccc1` (stereo not given) here?
Answer: 103 % of control

Question: What about the T/C (dose: 200.0 mg/kg/injection, schedule: Q04DX003 (ip), vehicle: saline) of the same compound?
Answer: 97 % of control

Question: And the T/C (dose: 400.0 mg/kg/injection, schedule: Q04DX003 (ip), vehicle: saline)?
Answer: 109 % of control

Question: With `C[CH2][Sn]([Cl])([Cl])[CH2]C.c1ccc2nc(-c3ccc4ccccc4n3)ccc2c1` as the compound, how does the T/C [1] read?
Answer: 106 % of control

Question: And the T/C [2]?
Answer: 106 % of control

Question: What about the T/C [3] of the same compound?
Answer: 103 % of control

Question: Which T/C (dose: 25.0 mg/kg/injection, schedule: Q01DX009 (ip), vehicle: saline) does the source give for `CC(=O)NCCCCCCNC(C)=O` here?
Answer: 100 % of control and 111 % of control and 97 % of control

Question: What about the T/C (dose: 31.0 mg/kg/injection, schedule: Q03HX008 (ip), vehicle: saline) of the same compound?
Answer: 101 % of control

Question: What about the T/C (dose: 41.7 mg/kg/injection, schedule: Q03HX024 (ip), vehicle: saline) of the same compound?
Answer: 105 % of control

Question: What about the T/C (dose: 50.0 mg/kg/injection, schedule: Q01DX009 (ip), vehicle: saline) of the same compound?
Answer: 100 % of control and 103 % of control and 119 % of control

Question: And the T/C (dose: 62.5 mg/kg/injection, schedule: Q03HX008 (ip), vehicle: saline)?
Answer: 103 % of control

Question: And the T/C (dose: 83.0 mg/kg/injection, schedule: Q03HX024 (ip), vehicle: saline)?
Answer: 107 % of control

Question: And the T/C (dose: 100.0 mg/kg/injection, schedule: Q01DX009 (ip), vehicle: saline)?
Answer: 103 % of control and 104 % of control

Question: And the T/C (dose: 125.0 mg/kg/injection, schedule: Q03HX008 (ip), vehicle: saline)?
Answer: 103 % of control

Question: What about the T/C (dose: 166.7 mg/kg/injection, schedule: Q03HX024 (ip), vehicle: saline) of the same compound?
Answer: 110 % of control

Question: And the T/C (dose: 200.0 mg/kg/injection, schedule: Q01DX009 (ip), vehicle: saline)?
Answer: 100 % of control and 105 % of control and 117 % of control

Question: And the T/C (dose: 250.0 mg/kg/injection, schedule: Q01DX001 (ip), vehicle: saline)?
Answer: 99 % of control

Question: What about the T/C (dose: 250.0 mg/kg/injection, schedule: Q03HX008 (ip), vehicle: saline) of the same compound?
Answer: 106 % of control

Question: And the T/C (dose: 333.0 mg/kg/injection, schedule: Q03HX024 (ip), vehicle: saline)?
Answer: 110 % of control

Question: What about the T/C (dose: 333.0 mg/kg/injection, schedule: Q04DX003 (ip), vehicle: saline) of the same compound?
Answer: 101 % of control

Question: And the T/C (dose: 400.0 mg/kg/injection, schedule: Q01DX009 (ip), vehicle: saline)?
Answer: 100 % of control and 105 % of control and 111 % of control

Question: What about the T/C (dose: 500.0 mg/kg/injection, schedule: Q01DX001 (ip), vehicle: saline) of the same compound?
Answer: 99 % of control

Question: And the T/C (dose: 500.0 mg/kg/injection, schedule: Q03HX008 (ip), vehicle: saline)?
Answer: 113 % of control

Question: What about the T/C (dose: 500.0 mg/kg/injection, schedule: Q03HX024 (ip), vehicle: saline) of the same compound?
Answer: 111 % of control

Question: What about the T/C (dose: 666.7 mg/kg/injection, schedule: Q04DX003 (ip), vehicle: saline) of the same compound?
Answer: 108 % of control

Question: What about the T/C (dose: 800.0 mg/kg/injection, schedule: Q01DX009 (ip), vehicle: saline) of the same compound?
Answer: 101 % of control and 108 % of control and 114 % of control

Question: What about the T/C (dose: 1000.0 mg/kg/injection, schedule: Q01DX001 (ip), vehicle: saline) of the same compound?
Answer: 101 % of control

Question: What about the T/C (dose: 1000.0 mg/kg/injection, schedule: Q03HX008 (ip), vehicle: saline) of the same compound?
Answer: 107 % of control

Question: And the T/C (dose: 1333.0 mg/kg/injection, schedule: Q04DX003 (ip), vehicle: saline)?
Answer: 106 % of control

Question: What about the T/C (dose: 2000.0 mg/kg/injection, schedule: Q01DX001 (ip), vehicle: saline) of the same compound?
Answer: 103 % of control

Question: And the T/C (dose: 2666.0 mg/kg/injection, schedule: Q04DX003 (ip), vehicle: saline)?
Answer: 105 % of control

Question: Which T/C (dose: 0.7 mg/kg/injection, schedule: Q01DX009 (ip), vehicle: saline with Tween-80) does the source give for `CCS(=O)(=O)Nc1cccc(Nc2c3cccc(C)c3nc3c(C)cccc23)c1OC` here?
Answer: 121 % of control

Question: What about the T/C (dose: 5.5 mg/kg/injection, schedule: Q01DX009 (ip), vehicle: saline with Tween-80) of the same compound?
Answer: 157 % of control

Question: And the T/C (dose: 6.25 mg/kg/injection, schedule: Q01DX009 (ip), vehicle: saline with Tween-80)?
Answer: 171 % of control

Question: And the T/C (dose: 11.0 mg/kg/injection, schedule: Q01DX009 (ip), vehicle: saline with Tween-80)?
Answer: 172 % of control and 217 % of control

Question: And the T/C (dose: 12.5 mg/kg/injection, schedule: Q01DX009 (ip), vehicle: saline with Tween-80)?
Answer: 177 % of control

Question: What about the T/C (dose: 16.7 mg/kg/injection, schedule: Q01DX009 (ip), vehicle: saline with Tween-80) of the same compound?
Answer: 220 % of control

Question: And the T/C (dose: 25.0 mg/kg/injection, schedule: Q01DX009 (ip), vehicle: saline with Tween-80)?
Answer: 155 % of control and 266 % of control

Question: What about the T/C (dose: 37.5 mg/kg/injection, schedule: Q01DX009 (ip), vehicle: saline with Tween-80) of the same compound?
Answer: 86 % of control

Question: What about the T/C [10] of the same compound?
Answer: 91 % of control
